Experiment [1] is filed under the species Xenopus laevis. Put plainly: Induction of cell cleavage arrest in Xenopus laevis blastular stage cells at 10 ug/mL. It counts as functional, Blastula stage.
The species named for experiment [2] is Xenopus laevis. Put plainly: Growth inhibition of Xenopus laevis blastular stage cells at 10 ug/mL. To be noted: Blastula stage, read-out: GI. The class given is functional.

SMILES strings stand for the structures.

With `CC(C)=CCC[C@H](C)[C@@H]1CC[C@]2(C)C3=C(CC[C@@]12C)[C@@]1(C)CC[C@H](O)C(C)(C)[C@@H]1CC3=O`, the Activity in the experiment listed under Xenopus laevis [1] is recorded as greater than 50%.

Take `O=c1[nH]cc(F)c(=O)[nH]1` [FLUOROURACIL]: the inhibition of growth at 10 µg/mL in the experiment listed under Xenopus laevis [2] stood at 47%.

`CC(C)=CCC[C@@H](C)[C@@H]1CC[C@]2(C)C3=C(CC[C@@]12C)[C@@]1(C)CC[C@H](O)C(C)(C)[C@@H]1CC3=O` [KANSENONE] showed an Activity in the experiment filed under Xenopus laevis [1] greater than 50%.

The record behind these values is ChEMBL document CHEMBL1159385, “Euphane and tirucallane triterpenes from the roots of Euphorbia kansui and their in vitro effects on the cell division of Xenopus” (2003).
